The test system of assay [1] is ethanol-induced gastric ulcer. As to the kind of experiment: Ethanol-induced gastric ulcer in rats. The assay is classed as in vivo, Sprague-Dawley rats. The settings on record: 20 mg/kg oral single dose. An excerpt: The composition obtained in example 2 (FAMC) was subjected to a preclinical test with animals, in which its antiulcer effect was compared with the antiulcer effects of the registered fatty alcohol tablet (RAT), and suspensions of Fatty Alcohols (FA) and microcrystalline cellulose (MC), the latter two prepared with doses of FA and MC equal to the doses of both substances in the FAMC suspension. The experimental model used in this trial was the induction of gastric ulcers in rats by ethanol. […] After completing the quarantine, the animals were randomly distributed into 11 experimental groups (10 rats/group): a negative control that only received the vehicle and 10 groups in which the ulcer was induced with 60% ethanol, among these a control positive not treated with any antiulcer agent, 8 groups treated with the substances to be evaluated and a group treated with Omeprazole as a reference substance, as shown in Table 2. […] The use of a negative control group (not subjected to damage with ethanol), as well as a positive control group (subjected to damage and without treatment with any substance) made it possible to verify the functioning of the model and compare the anti-ulcer efficacy of the substances evaluated. […]

In assay [2] the test system is gastric ulcer induced by pylorus ligation. Briefly: Gastric ulcer induced by pylorus ligation in rats. The format is in vivo, Sprague-Dawley rats. From the text:
The composition obtained in example 2 (FAMC) was subjected to a preclinical test with animals, in which its antiulcer effect was compared with the antiulcer effects of the registered fatty alcohol tablet (RAT), and suspensions of Fatty Alcohols (FA) and microcrystalline cellulose (MC), the latter two prepared with doses of FA and MC equal to the doses of both substances in the FAMC suspension. The experimental model used in this test was that of the induction of gastric ulcers in rats by ligation of the pylorus, which is an acid-dependent model, unlike the model presented in the previous example. […] After completing the quarantine, the animals were randomly distributed into 11 experimental groups (10 rats/group): a negative control that only received the vehicle and 10 groups in which the ulcer was induced by ligation of the pylorus, among these a positive control not treated with any antiulcer agent, 8 groups treated with the substances to be evaluated and a group treated with Omeprazole as a reference substance, as shown in Table 3. The suspensions were administered as they are, while a suspension with 1% acacia gum was prepared to administer the tablet. The use of a negative control group (not subjected to pylorus ligation), as well as that of a positive control (subjected to damage and without treatment with any substance) made it possible to verify the functioning of the model and compare the anti-ulcer efficacy of the substances evaluated. All treatments were administered orally, as a single dose, by intragastric intubation. The selected doses are within the range of effective doses verified in previous preliminary experiences and the dose of omeprazole (20 mg/kg) has also been effective in this model. To induce gastric ulcer, the animals were fasted for 24 hours prior to the experiment, with free access to water. One hour after the administration of single doses of the vehicle, and the different treatments, the animals were anesthetized by intraperitoneal injection with sodium thiopental (35 mg/kg), a 2 cm-long incision was made in the anterior third of the line abdominal media, locating the stomach and ligating the pyloric sphincter with silk suture number 2 and the abdominal wall was sutured with silk thread. One hour later, the rats were sacrificed in a halothane atmosphere, the stomachs were removed and the gastric juice collected in test tubes. The latter was centrifuged at 3000 rpm, the supernatant separated and quantified in ml.

The record followed here is patent US20230071637A1, “ORAL SUSPENSION WITH ANTIULCEROUS AND CHEMOPROTECTIVE EFFECT ON COLON CANCER AND PREPARATION METHOD THEREOF” (CENTRO NACIONAL DE INVESTIGACIONES CIENTIFICAS, priority 2020, published 2023).

Marks after values point to notes of the source that are not given here.

Take `COc1ccc2[nH]c([S+]([O-])Cc3ncc(C)c(OC)c3C)nc2c1` (stereo not drawn) [OMP, Omeprazole]: the “Ulcer Index” value in assay [1] (1 h before 60% ethanol, mean ± SEM) was 35.97 ± 14.48*** mm^2; in assay [2] (20 mg/kg oral single dose, 1 h before pylorus ligation, mean ± SEM), 3,9 ± 0,5 *** mm^2. Moreover, the “I (%) inhibition of ulcer index” value in assay [1] (vs positive control) is 78.8%; in assay [2] (20 mg/kg oral single dose, vs positive control) it was 83,2%. The Gastric juice volume in assay [2] (20 mg/kg oral single dose, supernatant of gastric juice 1 h after ligation, mean ± SEM) is recorded as 3,4 ± 0,4 ml. For the same molecule, the “volume of gastric juice (effect in words)” value in assay [2] (pylorus ligation, doses tested, vs positive control) is reported as “reduced”.
